Data on seven molecules can be found in patent publication US20240352466A1, “APTAMER-siRNA FUSIONS” (APTERNA LIMITED, priority 2020, published 2024).

In the oligonucleotide strings, read from the 5' end, every base follows the letter of its sugar. An asterisk marks phosphorothioate; unmarked linkages are phosphodiester. Other units and linkages are bracketed, terminal groups are in braces. A string of capitals states the bases alone. m = 2'-O-methyl; f = 2'-fluoro

Data set [1] deals with CEBPB mRNA. Nature of the data set: CEBPB mRNA transcripts (qPCR) in BNL-ME mouse cells transfected with naked and ESC siRNAs. Type of data set: cell-based. The note with it: 1, 5 and 10 nM + L3K, lysed after 48 hrs, vs untreated cells. On the procedure:
The activity of naked and ESC siRNAs was investigated in mouse BNL hepatocyte cells.
BNL-ME mouse cells were seeded at a density of approximately 20,000 cells per well. The following siRNAs were tested: (m) siCEBPB (Ambion) (SEQ ID NOs: 11, 51 and 12, 52), (m) siCEBPB (Ambs63860) (ESC) (SEQ ID NOs: 17, 18), (h/m) siCEBPB (SEQ ID NOs: 7 and 8), (h/m) siCEBPB ESC (SEQ ID NOs: 15 and 16), (h) siCEBPB (AP6143-6145) (SEQ ID NOs: 9 and 10), (r) siCEBPB (Hao) (SEQ ID NOs: 13 and 14). Test siRNAs were transfected at concentrations of 1, 5 and 10 nM in the presence of Lipofectamine™ 3000 (L3K). Control treatments (untreated, mock L3K treatment, and siFLUC at 1, 5 and 10 nM) were also performed. The media was changed 24 hours following transfection, and cells lysed after 48 hrs. CEBPB mRNA transcript were quantified through qPCR.
(Quantitative PCR measures a nucleic acid by following its amplification.)

Another data set concerns PANC-Luc cells. Nature of the data set: TfR-siCEBPb in mouse model of pancreatic cancer with liver metastasis. Type of data set: in vivo. The note with it: NOD/SCID mice, 15 mg/kg subcutaneous; for increase in photon count (BTL) relative to PBS and TfR-Fluc controls: after 3 weeks. The procedure: The anti-tumour effects of TfR-siCEBPb was investigated in a mouse model of pancreatic cancer with liver metastasis
Treatment group 1 was administered PBS as a negative control. Treatment group 2 was a TfR-siFLUC construct (SEQ ID NO:32, conjugated to SEQ ID NO:1), as described previously. Treatment groups 3 and 4 was administered ESC modified siCEBPb sequences from Example 4 linked to TfR aptamer SEQ ID NO: 40, an ESC-modified version of the TfR aptamer laid out in SEQ ID NO:1, via a disulphide bridge as described previously. Group 3 is treated with a ribonucleic acid comprising the human-mouse cross reactive siCEBPb described previously, whilst Group 4 is treated with a ribonucleic acid comprising a mouse siCEBPb. These ribonucleic acids correspond to TFR-SS-siCEBPb seq 1 (SEQ ID NO: 41+50) and TfR-SS-siCEBPb seq 2 (SEQ ID NO:34 and 47) respectively.
Each group consisted of five 6-week-old NOD/SCID mice. Three additional mice were included for baseline.
Fourteen days prior to the first dose, mice underwent tumour challenge by performing intrahepatic tumor implantation by injecting […] of a monocellular suspension (in PBS) containing 1×10^6 PANC-Luc cells into a region in the middle lobe of the livers of 6-week-old female NOD/SCID. The day prior to the first dose, mice underwent bioluminescence tumour imaging (BTL) and were weighed to set the week 0 baseline.
Doses were administered as a 100 μL injection on injection days as outlined in Table 2.
At day 21 (week 3), BTL and body weight were recorded, and blood samples were taken, along with pathological sections of pancreas, tumour and liver for study and cryopreservation. The schema of the experiments is shown as FIG. 6.

In data set [2] the test system is pancreatic cancer with liver metastasis. Nature of the data set: Combination of TfR-siCEBPb with PD-1 inhibitor pembrolizumab in mouse model of pancreatic cancer with liver metastasis. Type of data set: in vivo. An excerpt:
The combinatorial anti-tumour effects of TfR-siCEBPb and PD-1 inhibitor pembrolizumab were investigated in the mouse model of pancreatic cancer with liver metastasis. The TfR-siCEBPb (ESC) and TfR-siFLUC sequences from Example 5 were used in this study.
The treatment groups were as follows:
Fourteen days prior to the first dose, mice underwent tumour challenge. The day prior to, and 21 days following the first dose, mice underwent bioluminescence tumour imaging (BTL).

For data set [3], the system named is CEBPB mRNA. Nature of the data set: CEBPB mRNA expression in primary mouse hepatocytes exposed to TfR-SS-(h/m) siCEBPb. Type of data set: cell-based. From the text: The human siCEBPbeta sequence was aligned with chromosome 3 of the mouse genome (Accession NC_0344592.1), in which the CEBPbeta gene is located, using Basic Local Alignment Search Tool (BLAST, https://blast.ncbi.nlm.nih.gov). […] To make a human/mouse cross-reactive siRNA, this sequence was substituted in the sense (G to A) and antisense (C to U) strands. The sense and antisense strands of this human/mouse crossreactive (h/m) siCEBPb correspond to SEQ ID NOs: 15 and 16 respectively. TfR-SS-MALATI siRNA was included as an siRNA effector control.
Primary mouse hepatocytes were exposed to TfR-SS-MALATI (100 nM, 500 nM and 1000 nM) or TfR-SS-(h/m) siCEBPb (100 nM, 500 nM and 1000 nM), or were untreated, and the effects on CEBPB mRNA expression determined as outlined previously.

The next data set concerns CEBPA. Nature of the data set: qRT-PCR of CEBPA gene expression in PANC-1, Sup-B15 and CCFR-CEM cell lines. Format: cell-based, human. As to conditions: PANC-1, Sup-B15 and CCFR-CEM cells; 400 nM and 800 nM; normalized to GAPDH. The procedure:
(§1) In order to evaluate the effects of TfR aptamer-small RNAs, experiments were performed in PANC-1, Sup-B15 and CCFR-CEM cell lines.
(§2) The TfR-SS-siCEBPB construct as described in Example 1 was selected for these experiments. A TfR aptamer (SEQ ID NO:1) fused via a disulphide bridge (SS) to siRNA for MALATI (TfR-MALATI siR) was generated as a negative control for siCEBPB activity. The siCEBPB (SEQ ID NO:9) without a TfR aptamer delivery system was also included for comparative purposes.
(§3) Cells were seeded in plates on Day 0, and the first transfection of TfR aptamer-small RNAs was performed on day 1. The second transfection of TfR aptamer-small RNAs was performed on day 2. Sampling was performed on day 3. Total RNA extraction was performed on samples prior to qRT-PCR quantification of GAPDH, CEBPA, CEBPB, and p21 gene expression. Expression was normalized to GAPDH.
(§4) Transfections were performed at 400 nM and 800 nM concentrations.

The next data set concerns CEBPB. Nature of the data set: qRT-PCR of CEBPB gene expression in PANC-1, Sup-B15 and CCFR-CEM cell lines. Format: cell-based, human. The note with it: PANC-1, Sup-B15 and CCFR-CEM cells; 400 nM and 800 nM; normalized to GAPDH. The procedure:
as §1, §2, §3, §4

The subject of another data set is p21. Nature of the data set: qRT-PCR of p21 gene expression in PANC-1, Sup-B15 and CCFR-CEM cell lines. Type of data set: cell-based, human. The note with it: PANC-1, Sup-B15 and CCFR-CEM cells; 400 nM and 800 nM; normalized to GAPDH. On the procedure: as §1, §2, §3, §4
Another data set relates to CEBPA mRNA. Nature of the data set: CEBPA mRNA levels in Panc1 cells after TfR aptamer-saCEBPA constructs, active (L2K) and passive delivery. As to conditions: for CEBPA mRNA levels: passive delivery. Format: cell-based, human. From the text:
In order to test whether cleavable […] bridge (SS) linkers improved TfR aptamer delivery of small RNA, a series of constructs were made by fusing the 22nt TfR binding aptamer (SEQ ID NO:1) to: i. a CEBPalpha small activating RNA (saCEBPa, SEQ ID NO:24) ii. CEBPbeta small interfering RNA (siCEBPb, SEQ ID NO:9), or iii. siTTR (SEQ ID NO:28).
For the saCEBPa and […] constructs, variants were produced where the aptamer and small RNAs were linked through a disulphide linker (SS).
In order to compare the effects of the SS linker on active and passive delivery, constructs were applied to cells in the presence and absence of transfection agent Lipofectamine™ 2000 (L2K, ThermoFisher Scientific).
The effects of the constructs on CEBPA and B mRNA were measured in Panc1 (human pancreatic cancer cell line) cells. Cells were seeded at a density of approximately 50,000 per well in a 24 well plate, in antibiotic free media with no trypsin (Accutase®). Constructs were applied to cells at 10, 500 or 1000 nM concentration, and mRNA levels measured after incubation for 72 hrs.

With “(h/m) siCEBPB: human/mouse cross reactive naked CEBPB siRNA (AP6143), SEQ ID NOs: 7 and 8 (chain 1 CUGAGUAAUCACUUAAAGAUU; chain 2 UCUUUAAGUGAUUACUCAGUU; unmodified RNA)”, the “CEBPB mRNA expression” value in the data set with CEBPB mRNA [1] is “below half that of the untreated cells”.

Turning to “TfR-SS-(h/m) siCEBPb ESC seq 2: ESC modified human-mouse cross reactive siCEBPb linked to TfR aptamer SEQ ID NO:40 via a disulphide bridge (SEQ ID NO: 34 and 47) (chain 1 UUUAUUCACAUUUUUGAAUUGA; chain 2 CUGAGUAAUCGCUUAAAGAUU; chain 1: 2'-fluoro at CU, RNA at AG, backbone not given here; chain 2: chemistry not given here; further chemistry not fully specified)”, in the data set with PANC-Luc cells, the “body weight at 3 weeks relative to week 0” value is given as “body weight gain”; the “increase in photon count (BTL) relative to PBS and TfR-Fluc controls” value is on record as “lower”. Also, in the data set on PANC-Luc cells (week 3), the “effects on IVIS, body weight, tumour volume and weight, seq 2 compared with seq-1” value is listed as “more pronounced”; the “tumour burden relative to controls” value is “ability to reduce tumour burden”; the tumour volume result was “statistically significant lower”; the tumour weight entry is “statistically significant lower”. For the same molecule, the “effect on animal weight” value in data set [2] (in combination with pembrolizumab) was “no effect on animal weight”.

For the molecule “TfR-SS-(h/m) siCEBPb: TfR aptamer linked via SS to human/mouse crossreactive siCEBPb (SEQ ID NOs: 15 and 16) (chain 1 fCmUfGmAfGmUfAfAfUmCfAmCfUmUfAmAfAmGfA*mU*mU; chain 2 mU*fCmU*fUmUfAmAfGmUfGmAmUmUfAmCfUmCfAmG*mU*mU; TfR aptamer attached via disulphide linker, attachment site not given here)”, the entries for the “relative CEBPB mRNA expression” value in the data set with CEBPB mRNA [3] (100 nM), in the data set on CEBPB mRNA [3] (500 nM) and in the data set with CEBPB mRNA [3] (1000 nM) were “reduced slightly”, “strongest effect” and “more pronounced”, respectively.

For “TfR-SS-(m) siCEBPb ESC seq 1: ESC modified mouse siCEBPb linked to TfR aptamer SEQ ID NO:40 via a disulphide bridge (SEQ ID NO: 41+50) (chain 1 UUUAUUCACAUUUUUGAAUUGA; chain 2 GCACCCUGCGGAACUUGUUUU; ESC modified; disulphide linker; modified_base 1 OTHER; 2-Prime-fluoro uracil; modified_base 2 OTHER; modified_base 3 OTHER; modified_base 5 OTHER; modified_base 6 OTHER; modified_base 7 OTHER; 2-Prime-fluoro cytosine; modified_base 9 OTHER; modified_base 11 OTHER; modified_base 12 OTHER; 2-P; 2-Prime-fluoro guanine; 2-Prime-O-methyl cytosine; 2-Prime-fluoro adenine; modified_base 4 OTHER; mo)”, the “increase in photon count (BTL) relative to PBS and TfR-Fluc controls” value in the data set on PANC-Luc cells is on record as “lower”. Further, in the data set with PANC-Luc cells (week 3), the “tumour burden relative to controls” value was “ability to reduce tumour burden”, the tumour volume entry is recorded as “Slightly lower” and the tumour weight result was “Slightly lower”.

Consider “pembrolizumab: PD-1 inhibitor pembrolizumab [reference compound]”, for which the “tumour volume compared to PBS-treated controls” value in data set [2] (week 3, pembrolizumab 0.25 mg/kg, TfR constructs 10 mg/kg) is “smaller tumour volumes”.

Regarding “siCEBPbeta: human CEBPB siRNA (SEQ ID NOs: 9 and 10) without a TfR aptamer delivery system (chain 1 CUGAGUAAUCGCUUAAAGAUU; chain 2 UCUUUAAGCGAUUACUCAGUU; listed as RNA, chemistry not given here)”, in the data set on CEBPA, the C/EBPA gene expression entry is “no statistically significant change”. Further, the CEBPbeta gene expression entry in the data set on CEBPB was “no statistically significant change”. The p21 gene expression entry in the data set with p21 is on record as “no statistically significant change”.

B1: TfR-SS-saCEBPA: TfR aptamer SEQ ID NO:1 linked through a disulphide linker (SS) to saCEBPa (SEQ ID NO:38+49, 39) (nucleic acid)
chain 1: UUUAUUCACAUUUUUGAAUUGA
chain 2: UUUAUUCACAUUUUUGAAUUGA
chain 3: GACCAGUGACAAUGACCGCUU
chain 4: GCGGUCAUUGUCACUGGUCUU
modifications: TfR aptamer attached via disulphide linker, further chemistry not given here
As to B1, the “relative expression of CEBPA mRNA” value in the data set on CEBPA mRNA (10 nM + L2K (active delivery), 72 hrs, vs untreated samples) is “within 1 standard deviation of untreated samples”. The “CEBPA mRNA levels” value is given as “lower” in the data set on CEBPA mRNA (500 nM and 1000 nM, 72 hrs); “within one standard deviation of the control” in the data set on CEBPA mRNA (1000 nM, vs control).
